The source made the active and inactive calls. No cut-off for these calls is given here.
Experiments:
A549 = assay: Antiproliferative activity against human A549 cells after 72 hrs by MTT assay; format: functional, cell-based; settings: A549, 72 h
HT-29 [1] = assay: Antiproliferative activity against human HT-29 cells after 72 hrs by MTT assay; format: functional, cell-based; settings: HT-29, 72 h
MDA-MB-231 = assay: Antiproliferative activity against human MDA-MB-231 cells after 72 hrs by MTT assay; format: functional, cell-based; settings: MDA-MB-231, 72 h
A549/CDDP = assay: Antiproliferative activity against human A549/CDDP cells after 72 hrs by MTT assay; format: functional, cell-based
MCF7 = assay: Antiproliferative activity against human MCF7 cells after 72 hrs by MTT assay; format: functional, cell-based; settings: MCF7, 72 h
[2] = Antiproliferative activity against human MCF7/DX cells after 72 hrs by MTT assay; format: functional, cell-based
HT-29 [3] = assay: Antiproliferative activity against human HT-29 cells after 72 hrs by IncuCyte live-cell imaging assay; format: functional, cell-based
HT-29 [4] = assay: Antiproliferative activity against human HT-29 cells assessed as cell confluence level at 10 ug/ml after 72 hrs by IncuCyte live-cell imaging assay (reference value: 87.5%); format: functional
HT-29 [5] = assay: Antiproliferative activity against human HT-29 cells assessed as cell confluence level at 0.37 ug/ml after 0 to 12 hrs by IncuCyte live-cell imaging assay (reference value: 87.5%); format: functional
HT-29 [6] = assay: Cytotoxicity against human HT-29 cells assessed as increase in dead cells after 72 hrs by yoyo-1 dye-based fluorescence assay; format: functional, cell-based
HT-29 [7] = assay: Cytotoxicity against human HT-29 cells assessed as increase in dead cells at 3.33 ug/mL up to 72 hrs by yoyo-1 dye-based fluorescence assay; format: functional, cell-based
HT-29 [8] = assay: Cytotoxicity against human HT-29 cells assessed as increase in dead cells at 0.01 ug/mL after 72 hrs by yoyo-1 dye-based fluorescence assay; format: functional, cell-based
HT-29 [9] = assay: Induction of apoptosis in human HT-29 cells assessed as early apoptotic cells at 0.1 ug/mL after 72 hrs by Annexin V-FITC/propidium iodide staining-based flow cytometric analysis (reference value: 0%); format: functional
HT-29 [10] = assay: Induction of apoptosis in human HT-29 cells assessed as late apoptotic cells at 0.1 ug/mL after 72 hrs by Annexin V-FITC/propidium iodide staining-based flow cytometric analysis (reference value: 0.1%); format: functional
HT-29 [11] = assay: Induction of apoptosis in human HT-29 cells assessed as early apoptotic cells at 0.3 ug/mL after 72 hrs by Annexin V-FITC/propidium iodide staining-based flow cytometric analysis (reference value: 0%); format: functional
HT-29 [12] = assay: Induction of apoptosis in human HT-29 cells assessed as late apoptotic cells at 0.3 ug/mL after 72 hrs by Annexin V-FITC/propidium iodide staining-based flow cytometric analysis (reference value: 0.1%); format: functional
HT-29 [13] = assay: Induction of apoptosis in human HT-29 cells assessed as early apoptotic cells at 1 ug/mL after 72 hrs by Annexin V-FITC/propidium iodide staining-based flow cytometric analysis (reference value: 0%); format: functional
HT-29 [14] = assay: Induction of apoptosis in human HT-29 cells assessed as late apoptotic cells at 1 ug/mL after 72 hrs by Annexin V-FITC/propidium iodide staining-based flow cytometric analysis (reference value: 0.1%); format: functional
HT-29 [15] = assay: Induction of apoptosis in human HT-29 cells assessed as early apoptotic cells at 3 ug/mL after 72 hrs by Annexin V-FITC/propidium iodide staining-based flow cytometric analysis (reference value: 0%); format: functional
HT-29 [16] = assay: Induction of apoptosis in human HT-29 cells assessed as late apoptotic cells at 3 ug/mL after 72 hrs by Annexin V-FITC/propidium iodide staining-based flow cytometric analysis (reference value: 0.1%); format: functional
HT-29 [17] = assay: Induction of apoptosis in human HT-29 cells after 72 hrs by Annexin V-FITC/propidium iodide staining-based flow cytometric analysis; format: functional, cell-based
HT-29 [18] = assay: Antimigratory activity against human HT-29 cells at 3.33 ug/mL after 48 to 72 hrs by wound healing assay; format: functional, cell-based
[19] = molecular target: T1, Hepatocyte growth factor receptor (Homo sapiens, UniProt P08581); assay: Inhibition of c-Met (unknown origin) using FAM-labelled peptide and ATP incubated for 10 mins by mobility shift assay
T1 sequence (P08581 whole entry): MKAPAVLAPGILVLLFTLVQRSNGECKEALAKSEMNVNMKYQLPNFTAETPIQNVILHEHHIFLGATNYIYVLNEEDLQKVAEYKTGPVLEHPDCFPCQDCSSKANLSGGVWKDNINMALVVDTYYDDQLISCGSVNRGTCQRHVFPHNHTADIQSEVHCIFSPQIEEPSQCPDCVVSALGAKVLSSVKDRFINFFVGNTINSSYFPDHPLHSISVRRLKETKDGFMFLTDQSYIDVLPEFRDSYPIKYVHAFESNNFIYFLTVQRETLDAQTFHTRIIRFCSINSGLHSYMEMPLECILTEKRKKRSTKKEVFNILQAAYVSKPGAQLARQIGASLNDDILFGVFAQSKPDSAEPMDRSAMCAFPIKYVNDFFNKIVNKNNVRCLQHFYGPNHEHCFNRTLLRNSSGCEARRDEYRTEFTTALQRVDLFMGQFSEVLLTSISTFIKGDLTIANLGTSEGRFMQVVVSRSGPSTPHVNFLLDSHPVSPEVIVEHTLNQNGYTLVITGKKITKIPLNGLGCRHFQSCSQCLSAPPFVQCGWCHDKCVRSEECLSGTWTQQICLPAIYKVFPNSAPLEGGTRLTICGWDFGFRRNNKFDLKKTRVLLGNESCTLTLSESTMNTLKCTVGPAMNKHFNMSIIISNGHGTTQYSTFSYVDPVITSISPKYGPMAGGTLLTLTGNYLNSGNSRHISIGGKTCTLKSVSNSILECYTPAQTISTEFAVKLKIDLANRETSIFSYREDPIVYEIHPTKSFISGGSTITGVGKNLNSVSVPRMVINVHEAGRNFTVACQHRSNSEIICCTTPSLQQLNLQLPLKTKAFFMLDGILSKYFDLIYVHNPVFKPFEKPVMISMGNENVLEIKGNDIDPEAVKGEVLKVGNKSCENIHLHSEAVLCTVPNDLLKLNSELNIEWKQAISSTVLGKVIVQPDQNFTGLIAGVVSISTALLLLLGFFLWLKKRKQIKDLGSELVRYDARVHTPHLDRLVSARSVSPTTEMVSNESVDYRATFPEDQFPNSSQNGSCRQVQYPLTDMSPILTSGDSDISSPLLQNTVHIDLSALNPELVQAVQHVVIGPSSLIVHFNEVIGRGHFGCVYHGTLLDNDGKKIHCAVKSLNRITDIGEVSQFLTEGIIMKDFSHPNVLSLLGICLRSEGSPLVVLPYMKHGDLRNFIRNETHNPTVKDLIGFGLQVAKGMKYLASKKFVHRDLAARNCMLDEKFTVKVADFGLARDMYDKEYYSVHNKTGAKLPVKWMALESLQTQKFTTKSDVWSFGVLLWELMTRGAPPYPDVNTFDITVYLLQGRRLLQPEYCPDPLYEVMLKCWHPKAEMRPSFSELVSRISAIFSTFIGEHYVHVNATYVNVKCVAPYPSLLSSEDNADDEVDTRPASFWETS

[20] = molecular target: Macrophage-stimulating protein receptor (Homo sapiens, UniProt Q04912); assay: Inhibition of Ron (unknown origin) using FAM-labelled peptide and ATP incubated for 10 mins by mobility shift assay
Sequence of Macrophage-stimulating protein receptor (Q04912 25-304 limits assumed): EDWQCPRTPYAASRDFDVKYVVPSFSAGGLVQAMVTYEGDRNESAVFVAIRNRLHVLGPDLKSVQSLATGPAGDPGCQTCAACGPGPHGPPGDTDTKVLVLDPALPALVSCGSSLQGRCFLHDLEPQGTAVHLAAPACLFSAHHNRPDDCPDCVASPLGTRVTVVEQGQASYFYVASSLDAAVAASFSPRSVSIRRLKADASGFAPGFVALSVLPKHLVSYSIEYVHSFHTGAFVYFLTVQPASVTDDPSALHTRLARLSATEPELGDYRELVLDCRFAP
Sequence of Macrophage-stimulating protein receptor (Q04912 310-1400 limits assumed): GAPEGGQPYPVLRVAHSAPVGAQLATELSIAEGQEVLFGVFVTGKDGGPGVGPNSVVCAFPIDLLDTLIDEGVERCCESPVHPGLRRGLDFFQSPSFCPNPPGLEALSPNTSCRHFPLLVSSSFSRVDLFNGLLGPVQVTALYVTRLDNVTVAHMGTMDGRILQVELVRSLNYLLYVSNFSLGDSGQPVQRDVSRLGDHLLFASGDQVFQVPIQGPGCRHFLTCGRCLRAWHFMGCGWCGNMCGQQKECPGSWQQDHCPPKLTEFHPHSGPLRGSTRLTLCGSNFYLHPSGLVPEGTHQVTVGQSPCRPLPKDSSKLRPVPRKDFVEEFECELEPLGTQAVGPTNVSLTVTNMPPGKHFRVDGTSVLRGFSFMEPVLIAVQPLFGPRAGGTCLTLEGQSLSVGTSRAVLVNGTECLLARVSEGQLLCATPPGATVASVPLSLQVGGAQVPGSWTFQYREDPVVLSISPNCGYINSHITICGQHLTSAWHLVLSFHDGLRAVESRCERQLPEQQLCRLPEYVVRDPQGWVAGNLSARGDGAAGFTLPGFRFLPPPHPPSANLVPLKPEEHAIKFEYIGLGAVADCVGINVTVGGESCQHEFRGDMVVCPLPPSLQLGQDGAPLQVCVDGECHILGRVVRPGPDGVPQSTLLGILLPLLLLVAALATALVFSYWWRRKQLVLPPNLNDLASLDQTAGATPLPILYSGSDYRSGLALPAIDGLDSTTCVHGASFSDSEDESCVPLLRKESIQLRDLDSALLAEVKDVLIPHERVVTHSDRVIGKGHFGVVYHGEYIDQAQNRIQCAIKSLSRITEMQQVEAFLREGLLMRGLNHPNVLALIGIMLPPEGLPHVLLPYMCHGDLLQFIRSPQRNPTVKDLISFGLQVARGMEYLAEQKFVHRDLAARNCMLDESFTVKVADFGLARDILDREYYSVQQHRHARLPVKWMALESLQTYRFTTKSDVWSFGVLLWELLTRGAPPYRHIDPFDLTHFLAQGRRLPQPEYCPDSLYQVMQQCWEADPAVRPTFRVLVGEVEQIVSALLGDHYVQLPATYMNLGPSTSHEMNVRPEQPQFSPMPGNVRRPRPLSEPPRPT

[21] = molecular target: Mast/stem cell growth factor receptor Kit (Homo sapiens, UniProt P10721); assay: Inhibition of c-Kit (unknown origin) using FAM-labelled peptide and ATP incubated for 10 mins by mobility shift assay
Sequence of Mast/stem cell growth factor receptor Kit (P10721 whole entry): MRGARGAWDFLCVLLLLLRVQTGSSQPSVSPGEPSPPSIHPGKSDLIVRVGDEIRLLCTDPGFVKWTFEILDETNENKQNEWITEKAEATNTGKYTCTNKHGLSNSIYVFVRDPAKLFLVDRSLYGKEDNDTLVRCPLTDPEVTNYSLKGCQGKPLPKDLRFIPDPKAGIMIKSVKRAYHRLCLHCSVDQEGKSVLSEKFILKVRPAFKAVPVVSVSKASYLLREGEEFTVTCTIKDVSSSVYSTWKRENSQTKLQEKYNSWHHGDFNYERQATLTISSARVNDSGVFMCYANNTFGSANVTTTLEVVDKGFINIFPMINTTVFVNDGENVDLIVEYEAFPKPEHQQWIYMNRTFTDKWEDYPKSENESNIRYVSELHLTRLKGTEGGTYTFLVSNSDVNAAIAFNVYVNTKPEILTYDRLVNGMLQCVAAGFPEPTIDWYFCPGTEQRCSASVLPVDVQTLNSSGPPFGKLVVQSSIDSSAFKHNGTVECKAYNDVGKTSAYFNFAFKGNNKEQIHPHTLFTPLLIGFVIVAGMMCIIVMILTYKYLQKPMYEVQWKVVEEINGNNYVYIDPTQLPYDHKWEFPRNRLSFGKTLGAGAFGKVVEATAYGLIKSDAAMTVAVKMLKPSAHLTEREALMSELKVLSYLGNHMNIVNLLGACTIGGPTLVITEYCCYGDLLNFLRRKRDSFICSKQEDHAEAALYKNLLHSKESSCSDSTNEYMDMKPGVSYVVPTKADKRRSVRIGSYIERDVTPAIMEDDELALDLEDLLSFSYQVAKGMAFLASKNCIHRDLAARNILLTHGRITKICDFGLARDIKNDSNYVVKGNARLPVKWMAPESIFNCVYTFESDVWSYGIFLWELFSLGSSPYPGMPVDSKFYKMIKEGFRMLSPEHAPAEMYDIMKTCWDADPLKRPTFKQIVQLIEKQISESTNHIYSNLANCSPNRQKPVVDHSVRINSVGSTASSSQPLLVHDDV

[22] = molecular target: Vascular endothelial growth factor receptor 2 (Homo sapiens, UniProt P35968); assay: Inhibition of KDR (unknown origin) using FAM-labelled peptide and ATP incubated for 10 mins by mobility shift assay
[23] = molecular target: Receptor tyrosine-protein kinase erbB-2 (Homo sapiens, UniProt P04626); assay: Inhibition of HER-2 (unknown origin) using FAM-labelled peptide and ATP incubated for 10 mins by mobility shift assay
Sequence of Receptor tyrosine-protein kinase erbB-2 (P04626 whole entry): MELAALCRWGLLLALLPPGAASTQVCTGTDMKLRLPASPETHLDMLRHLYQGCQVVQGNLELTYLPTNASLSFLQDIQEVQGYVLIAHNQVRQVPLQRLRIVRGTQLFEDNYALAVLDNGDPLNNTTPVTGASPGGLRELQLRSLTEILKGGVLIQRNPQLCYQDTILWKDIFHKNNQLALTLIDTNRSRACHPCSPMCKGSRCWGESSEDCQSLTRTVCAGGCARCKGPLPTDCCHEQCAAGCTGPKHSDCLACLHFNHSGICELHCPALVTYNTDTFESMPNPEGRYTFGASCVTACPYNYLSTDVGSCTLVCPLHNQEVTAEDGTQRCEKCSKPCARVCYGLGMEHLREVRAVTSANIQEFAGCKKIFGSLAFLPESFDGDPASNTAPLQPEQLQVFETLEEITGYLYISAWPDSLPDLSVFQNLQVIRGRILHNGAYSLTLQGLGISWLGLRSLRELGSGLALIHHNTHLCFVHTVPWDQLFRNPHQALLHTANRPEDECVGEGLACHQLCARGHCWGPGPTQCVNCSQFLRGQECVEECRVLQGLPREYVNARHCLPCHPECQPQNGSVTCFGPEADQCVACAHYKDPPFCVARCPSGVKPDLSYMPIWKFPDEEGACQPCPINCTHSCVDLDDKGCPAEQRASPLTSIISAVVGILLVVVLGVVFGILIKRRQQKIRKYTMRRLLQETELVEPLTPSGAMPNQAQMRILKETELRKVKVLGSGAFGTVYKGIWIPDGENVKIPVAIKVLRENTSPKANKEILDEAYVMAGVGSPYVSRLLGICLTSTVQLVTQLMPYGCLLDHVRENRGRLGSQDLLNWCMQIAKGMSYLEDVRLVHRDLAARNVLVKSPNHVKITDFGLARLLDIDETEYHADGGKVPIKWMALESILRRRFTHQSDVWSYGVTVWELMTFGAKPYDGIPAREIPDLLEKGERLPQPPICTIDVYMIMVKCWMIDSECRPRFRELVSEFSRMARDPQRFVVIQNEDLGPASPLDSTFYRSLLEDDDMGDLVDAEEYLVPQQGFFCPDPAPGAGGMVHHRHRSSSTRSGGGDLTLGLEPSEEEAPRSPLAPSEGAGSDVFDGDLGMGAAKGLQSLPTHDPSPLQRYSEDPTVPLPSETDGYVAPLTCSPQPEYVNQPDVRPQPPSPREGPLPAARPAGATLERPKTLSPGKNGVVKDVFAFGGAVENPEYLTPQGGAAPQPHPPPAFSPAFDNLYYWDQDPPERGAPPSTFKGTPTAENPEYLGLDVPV

[24] = molecular target: ALK tyrosine kinase receptor (Homo sapiens, UniProt Q9UM73); assay: Inhibition of ALK (unknown origin) using FAM-labelled peptide and ATP incubated for 10 mins by mobility shift assay
[25] = molecular target: Proto-oncogene tyrosine-protein kinase Src (Homo sapiens, UniProt P12931); assay: Inhibition of c-Src (unknown origin) using FAM-labelled peptide and ATP incubated for 10 mins by mobility shift assay
[26] = molecular target: Insulin-like growth factor 1 receptor (Homo sapiens, UniProt P08069); assay: Inhibition of IGF-1R (unknown origin) using FAM-labelled peptide and ATP incubated for 10 mins by mobility shift assay
[27] = molecular target: Epidermal growth factor receptor (Homo sapiens, UniProt P00533); assay: Inhibition of EGFR (unknown origin) using FAM-labelled peptide and ATP incubated for 10 mins by mobility shift assay
[28] = molecular target: T2, Tyrosine-protein kinase receptor UFO (Homo sapiens, UniProt P30530); assay: Inhibition of AXL (unknown origin) using FAM-labelled peptide and ATP incubated for 10 mins by mobility shift assay
T2 sequence (P30530 whole entry): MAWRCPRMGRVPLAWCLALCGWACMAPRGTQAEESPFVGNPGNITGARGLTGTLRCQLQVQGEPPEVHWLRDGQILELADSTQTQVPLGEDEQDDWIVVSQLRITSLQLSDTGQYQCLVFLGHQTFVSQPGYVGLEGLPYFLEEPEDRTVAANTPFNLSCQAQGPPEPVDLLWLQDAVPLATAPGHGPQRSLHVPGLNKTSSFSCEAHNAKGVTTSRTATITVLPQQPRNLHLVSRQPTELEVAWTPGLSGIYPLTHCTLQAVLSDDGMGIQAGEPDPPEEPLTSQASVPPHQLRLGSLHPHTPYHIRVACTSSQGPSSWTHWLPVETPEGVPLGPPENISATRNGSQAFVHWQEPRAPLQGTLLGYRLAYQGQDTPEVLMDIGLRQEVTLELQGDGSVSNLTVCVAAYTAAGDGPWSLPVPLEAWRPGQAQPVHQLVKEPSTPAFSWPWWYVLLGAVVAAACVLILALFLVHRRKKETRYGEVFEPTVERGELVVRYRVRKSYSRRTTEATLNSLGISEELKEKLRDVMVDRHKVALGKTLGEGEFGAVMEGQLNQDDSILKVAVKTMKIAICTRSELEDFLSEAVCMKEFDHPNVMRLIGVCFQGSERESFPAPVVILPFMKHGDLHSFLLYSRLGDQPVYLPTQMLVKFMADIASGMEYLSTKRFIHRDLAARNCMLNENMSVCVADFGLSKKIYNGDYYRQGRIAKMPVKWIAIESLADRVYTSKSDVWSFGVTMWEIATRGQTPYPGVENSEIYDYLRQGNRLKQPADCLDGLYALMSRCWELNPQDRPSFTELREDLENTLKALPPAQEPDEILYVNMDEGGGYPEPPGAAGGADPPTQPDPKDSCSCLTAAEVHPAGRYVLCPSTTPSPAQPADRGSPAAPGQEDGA

[29] = molecular target: T1, Hepatocyte growth factor receptor; assay: Inhibition of c-Met phosphorylation in human HT-29 cells at 3 ug/mL after 72 hrs by Western blot analysis; format: cell-based
[30] = molecular target: T1, Hepatocyte growth factor receptor; assay: Inhibition of c-Met in human HT-29 cells assessed as decrease in Akt phosphorylation at 3 ug/mL after 72 hrs by Western blot analysis; format: cell-based
[31] = molecular target: T1, Hepatocyte growth factor receptor; assay: Inhibition of c-Met in human HT-29 cells assessed as decrease in ERK1/2 phosphorylation at 3 ug/mL after 72 hrs by Western blot analysis; format: cell-based
FHC = assay: Cytotoxicity against human FHC cells after 72 hrs by MTT assay; format: cell-based
[32] = Selectivity index, ratio of IC50 for human FHC cells to IC50 for human HT-29 cells; format: toxicity; settings: FHC cells and HT-29 cells, read-out: Ratio IC50
HT-29 [33] = assay: Antimigratory activity against human HT-29 cells at <3.33 ug/mL after 48 to 72 hrs by wound healing assay; format: functional, cell-based

CCN1CCN(CCCOc2cc3nccc(Oc4c(F)cc(NC(=O)NN5C(=O)CSC5c5c(F)cccc5F)cc4F)c3cc2OC)CC1 (stereo not drawn)
IC50 (A549): 350 nM | IC50 (HT-29 [1]): 73 nM | IC50 (MDA-MB-231): 3100 nM | IC50 (A549/CDDP): 630 nM | IC50 (MCF7): 1500 nM | IC50 [2]: 3800 nM | Activity (HT-29 [3]): Dose-dependent effect | Activity (HT-29 [4]): 24.3% | Activity (HT-29 [5]): 63.6% | Activity (HT-29 [6]): Dose-dependent effect | Activity (HT-29 [7]): Active | Activity (HT-29 [8]): Active | Activity (HT-29 [9]): 17.4% | Activity (HT-29 [10]): 9.9% | Activity (HT-29 [11]): 55.1% | Activity (HT-29 [12]): 9.6% | Activity (HT-29 [13]): 70.2% | Activity (HT-29 [14]): 11% | Activity (HT-29 [15]): 74.5% | Activity (HT-29 [16]): 10.3% | Activity (HT-29 [17]): Dose-dependent effect | Activity (HT-29 [18]): Active | IC50 [19]: 15 nM | IC50 [20]: 2.9 nM | IC50 [21]: 64 nM | IC50 [22]: 850 nM | IC50 [23]: > 10000 nM | IC50 [24]: > 10000 nM | IC50 [25]: 240 nM | IC50 [26]: 2100 nM | IC50 [27]: 520 nM | IC50 [28]: 53 nM | inhibition [29]: Active | inhibition [30]: Active | inhibition [31]: Active | IC50 (FHC): 1180 nM | selectivity ratio [32]: 16.2 | Activity (HT-29 [33]): inactive
